In brackets after ≈: the same amount, converted by molar mass. Activity calls are given as the source filed them. The rule behind the calls is not given here.
Key:
[1] = test system: Human immunodeficiency virus 1; assay: Antiviral activity against HIV1 3B replication in human H9 cells up to 100 ug/mL after 3 days by p24 antigen capture assay; assay type: functional, organism-based
[2] = test system: Human immunodeficiency virus 1; assay: Antiviral activity against HIV1 3B replication in human H9 cells after 3 days by p24 antigen capture assay; assay type: functional, organism-based; settings: Human immunodeficiency virus 1, 3B, H9, 72 h
[3] = Therapeutic index, ratio of inhibition of human H9 cells to EC50 for HIV1 3B; assay type: cell-based

Row | EC50 [2] [µg/mL] | Structure (SMILES) | Activity [1] | selectivity ratio [3]
1 |  | C[C@@]12CCC[C@@](C)(C=O)[C@H]1CC[C@@]13C[C@H](CC[C@H]12)[C@H](C(=O)O)C3 | inactive | 
2 |  | C[C@@]12CCC[C@@](C)(C(=O)O)[C@H]1CC[C@@]13C[C@H](CC[C@H]12)[C@@](O)(CO)C3 | inactive | 
3 |  | C[C@@]12CCC[C@@](C)(C=O)[C@H]1CC[C@]13C[C@@H](CO)[C@@H](CC[C@H]12)C3 | inactive | 
4 |  | C[C@@]12CCC[C@@](C)(O)[C@H]1CC[C@@]13C[C@H](CC[C@H]12)[C@H](C(=O)O)C3 | inactive | 
5 |  | C[C@@]1(CO)CCC[C@]2(C)[C@@H]1CC[C@@]13C[C@H](CC[C@H]12)[C@](O)(CO)C3 | inactive | 
6 |  | CC(=O)OC[C@]1(O)C[C@@]23CC[C@H]4[C@@](C)(CCC[C@@]4(C)C=O)[C@@H]2CC[C@H]1C3 | inactive | 
7 |  | C=C1C[C@@]23CC[C@H]4[C@@](C)(CCC[C@@]4(C)C(=O)O)[C@@H]2CC[C@@H]1C3 | inactive | 
8 |  | C[C@@]12CCC[C@@](C)(C(=O)O)[C@H]1CC[C@]13CC(CO)[C@@H](CC[C@H]12)C3 (mixture of isomers) | inactive | 
9 |  | CC(=O)OC[C@@H]1C[C@@]23CC[C@H]4[C@@](C)(CCC[C@@]4(C)C(=O)O)[C@@H]2CC[C@H]1C3 | inactive | 
10 |  | C[C@@]12CCC[C@@](C)(O)[C@H]1CC[C@@]13C[C@H](CC[C@H]12)[C@](O)(CO)C3 | inactive | 
11 |  | C=C1C[C@@]23CC[C@@H]4[C@](C)(CO)CCC[C@@]4(C)[C@@H]2CC[C@H]1C3 | inactive | 
12 |  | C[C@@]12CCC[C@@](C)(C=O)[C@H]1CC[C@@]13C[C@@H](CC[C@H]12)[C@](O)(CO)C3 | inactive | 
13 | 0.8 (≈ 2.38 µM) | C[C@@]12CCC[C@@](C)(C(=O)O)[C@H]1CC[C@@]13C[C@@H](CC[C@H]12)[C@](O)(CO)C3 |  | > 5

Source: ChEMBL document CHEMBL1158287, “Identification of ent-16 beta, 17-dihydroxykauran-19-oic acid as an anti-HIV principle and isolation of the new diterpenoids annosquamosins A and B from Annona squamosa” (J Nat Prod, 1996)
